The values that follow are results of earlier work, collected in US11389451B2, “Metolazone emulsion formulation” (ACADEMIC PHARMACEUTICALS, INC., priority 2017, dated 2022).

The structures appear in SMILES notation.

The conditions of this series: background statement.

As to `Cc1ccccc1N1C(=O)c2cc(S(N)(=O)=O)c(Cl)cc2NC1C` (centres unmarked) [Metolazone], the solubility in lipids result is listed as “moderate to high” and the solubility in water entry is given as “low”.
